Experimental data published in PubChem BioAssay AID1963963 (Molecular Pharmacology Branch, DTP, NCI, 2024).

Tested on: 958667-338-R-J2-PDC tumor spheroids viability
Test: Anticancer human tumor 958667-338-R-J2-PDC patient-derived colon adenocarcinoma cell line growth inhibition [PI3K]
Conditions: spheroids with HUVEC and MSC; for IC50: curve of first compound; for viability, T/C: stronger effect = lower value; active = viability on the fitted dose curve at most 10% of control; inactive = the rest
Outline: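 Spheroid viability read-out. Co-cultures contained the tumor line plus HUVEC and human MSCs. Each agent was paired with a PI3K inhibitor (inavolisib, alpelisib, duvelisib, copanlisib) across half-log dilutions starting at clinical Cmax, or at 10 microM when Cmax was unknown.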

[1] = second compound 0.0316 µM, first compound 0.0316 µM
[2] = second compound 0.0316 µM, first compound 0.1 µM
[3] = second compound 0.0316 µM, first compound 0.316 µM
[4] = second compound 0.0316 µM, first compound 1 µM
[5] = second compound 0.0316 µM, first compound 3.16 µM
[6] = second compound 0.0316 µM, first compound 10 µM
[7] = second compound 0.1 µM, first compound 0.0316 µM
[8] = second compound 0.1 µM, first compound 0.1 µM
[9] = second compound 0.1 µM, first compound 0.316 µM
[10] = second compound 0.1 µM, first compound 1 µM
[11] = second compound 0.1 µM, first compound 3.16 µM
[12] = second compound 0.1 µM, first compound 10 µM
[13] = second compound 0.316 µM, first compound 0.0316 µM
[14] = second compound 0.316 µM, first compound 0.1 µM
[15] = second compound 0.316 µM, first compound 0.316 µM
[16] = second compound 0.316 µM, first compound 1 µM
[17] = second compound 0.316 µM, first compound 3.16 µM
[18] = second compound 0.316 µM, first compound 10 µM
[19] = second compound 1 µM, first compound 0.0316 µM
[20] = second compound 1 µM, first compound 0.1 µM
[21] = second compound 1 µM, first compound 0.316 µM
[22] = second compound 1 µM, first compound 1 µM
[23] = second compound 1 µM, first compound 3.16 µM
[24] = second compound 1 µM, first compound 10 µM
[25] = second compound 3.16 µM, first compound 0.0316 µM
[26] = second compound 3.16 µM, first compound 0.1 µM
[27] = second compound 3.16 µM, first compound 0.316 µM
[28] = second compound 3.16 µM, first compound 1 µM
[29] = second compound 3.16 µM, first compound 3.16 µM
[30] = second compound 3.16 µM, first compound 10 µM
[31] = second compound 10 µM, first compound 0.0316 µM
[32] = second compound 10 µM, first compound 0.1 µM
[33] = second compound 10 µM, first compound 0.316 µM
[34] = second compound 10 µM, first compound 1 µM
[35] = second compound 10 µM, first compound 3.16 µM
[36] = second compound 10 µM, first compound 10 µM
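Also: spheroids exposed to compounds for seven days before readout.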

CC1(C)CCC(CN2CCN(c3ccc(C(=O)NS(=O)(=O)c4ccc(NCC5CCOCC5)c([N+](=O)[O-])c4)c(Oc4cnc5[nH]ccc5c4)c3)CC2)=C(c2ccc(Cl)cc2)C1 + CC(Nc1ncnc2nc[nH]c12)c1cc2cccc(Cl)c2c(=O)n1-c1ccccc1
> 10 µM: IC50 (second compound 0.0316 µM) | IC50 (second compound 0.1 µM) | IC50 (second compound 0.316 µM) | IC50 (second compound 1 µM) | IC50 (second compound 3.16 µM) | IC50 (second compound 10 µM)
inactive: viability, T/C [1] 107% | viability, T/C [2] 93.6% | viability, T/C [3] 101% | viability, T/C [4] 93% | viability, T/C [5] 119% | viability, T/C [6] 69.9% | viability, T/C [7] 96.3% | viability, T/C [8] 102% | viability, T/C [9] 90.6% | viability, T/C [10] 94.6% | viability, T/C [11] 107% | viability, T/C [12] 51.2% | viability, T/C [13] 101% | viability, T/C [14] 106% | viability, T/C [15] 104% | viability, T/C [16] 116% | viability, T/C [17] 105% | viability, T/C [18] 80.3% | viability, T/C [19] 90.1% | viability, T/C [20] 96.2% | viability, T/C [21] 100% | viability, T/C [22] 100% | viability, T/C [23] 101% | viability, T/C [24] 76.8% | viability, T/C [25] 93.4% | viability, T/C [26] 108% | viability, T/C [27] 94.4% | viability, T/C [28] 93.1% | viability, T/C [29] 99.9% | viability, T/C [30] 54.5% | viability, T/C [31] 93.2% | viability, T/C [32] 84.3% | viability, T/C [33] 101% | viability, T/C [34] 88% | viability, T/C [35] 97.7% | viability, T/C [36] 68.2%

C[C@@H](NC(=O)c1ncnc(N)c1Cl)c1ncc(C(=O)Nc2cc(C(F)(F)F)c(Cl)cn2)s1 + CC(Nc1ncnc2nc[nH]c12)c1cc2cccc(Cl)c2c(=O)n1-c1ccccc1
> 10 µM: IC50 (second compound 0.0316 µM) | IC50 (second compound 0.1 µM) | IC50 (second compound 0.316 µM) | IC50 (second compound 1 µM) | IC50 (second compound 3.16 µM) | IC50 (second compound 10 µM)
inactive: viability, T/C [1] 129% | viability, T/C [2] 114% | viability, T/C [3] 99.7% | viability, T/C [4] 95.9% | viability, T/C [5] 84.1% | viability, T/C [6] 74.9% | viability, T/C [7] 98% | viability, T/C [8] 115% | viability, T/C [9] 99.9% | viability, T/C [10] 108% | viability, T/C [11] 97.6% | viability, T/C [12] 73.3% | viability, T/C [13] 98.2% | viability, T/C [14] 106% | viability, T/C [15] 96.3% | viability, T/C [16] 102% | viability, T/C [17] 94.3% | viability, T/C [18] 94.3% | viability, T/C [19] 83.7% | viability, T/C [20] 93.3% | viability, T/C [21] 102% | viability, T/C [22] 100% | viability, T/C [23] 89.1% | viability, T/C [24] 73.2% | viability, T/C [25] 112% | viability, T/C [26] 89% | viability, T/C [27] 96.1% | viability, T/C [28] 82.6% | viability, T/C [29] 99.4% | viability, T/C [30] 75.5% | viability, T/C [31] 110% | viability, T/C [32] 98.5% | viability, T/C [33] 96.5% | viability, T/C [34] 96.1% | viability, T/C [35] 92.9% | viability, T/C [36] 107%
